# Test results reported in patent publication US9675074B2, “Methods to reduce cold damage in cereals” (Valent BioSciences Corporation, priority 2014, dated 2017).
# How the values were obtained:
# Corn [1] = assay: Greenhouse corn, foliar GA3 before a simulated freeze event (−2° C. for 8 hours), evaluated 8 days after freezing; format: in vivo
# Description: Corn seeds were planted in 18 cell flats filled with Sunshine 900 mix. Osmocote Plus (cal mag) 16-8-12 and Gypsum ([…]) were added (standard medium). The plants were watered and fertilized with 100 ppm of a commercially available 15-5-15 mixture plus 100 ppm calcium and 100 ppm magnesium, pH 6.5, as necessary and grown in the greenhouse. After the corn grew for 7 days, the plants received a foliar application of 1.8 ml of 120 mg/liter GA3 plus 0.05% non-ionic surfactant per plant. Sixteen hours later, the GA3-treated and untreated control plants were moved to a cold room with temperature at −2° C. for 8 hours to simulate a freeze event. Plants were then moved to the greenhouse (25° C.). The plant height, number of injured leaves, and damaged leaf area were evaluated at 8 days after freezing.
# Corn [2] = assay: Corn growth at 8° C. for 7 d after foliar GA3 application at V2; format: in vivo; conditions: 120 mg/liter (0.2 mg/plant: 6.9 grams of GA3/acre)
# Description: Corn seeds were planted in 2 quart pots filled with standard medium and grown in the greenhouse. After the corn grew for 10 days at 24° C., it was at the V2 growth stage. The 10d post-sowing plants received a foliar application of 1.8 ml of 120 mg/liter GA3 plus 0.05% of a non-ionic surfactant. Immediately after spraying, both the GA3-treated and untreated control plants were moved to a growth chamber set at 8° C. with a 12:12 photoperiod. The height of the plants was measured one week after treatment.
# [3] = 120 mg/liter GA3, 1.8 ml per plant, 16 h before −2° C. for 8 h, 8 days after freezing
# [4] = pre-frost GA3 treatment, 120 mg/liter
smiles,measurement,setting,value
"C=C1C[C@]23C[C@@]1(O)CC[C@H]2[C@@]12C=C[C@H](O)[C@@](C)(C(=O)O1)[C@H]2[C@@H]3C(=O)O [GA3, gibberellic acid]",Damaged leaf area,Corn [1]; [3],12.4%
same,Number of injured leaf,Corn [1]; [3],2.6
same,Plant height,Corn [1]; [3],59.7 cm
same,Effect on number of injured leaves or damaged leaf area,Corn [1]; [4],did not reduce the number of injured leaves or damaged leaf area
same,Recovery from frost damage,Corn [1]; [4],did help the corn recover from the frost damage
same,Growth rate,Corn [2]; 7 d at 8° C.,0.58 cm/day
same,Height at 7 d,"Corn [2]; 7 d at 8° C., 12:12 photoperiod",28.0 cm
same,Height at Application,"Corn [2]; baseline at application, V2",23.9 cm
